Test system: ERK1/2 and CREB activities (pERK1/2, pCREB)
Assay: ERK1/2 and CREB activities in cultured neurons (WB)
Assay type: cell-based, mouse
Settings: WT neurons pre-incubated with peptide overnight, vs control
Procedure: FIGS. 7F-7H show the effects of TAT-EE3 on ERK1/2 and CREB activities in cultured neurons isolated from gM2KO and nM2KO mice, and WT littermates. WT neurons were treated with TAT-EE3 or TAT-SC for overnight before the experiments. Neurons were incubated for 1 h before experiments with 1) control (PBS), 2) NMDA (10 μM) to activate synaptic and extrasynaptic NMDARs, and 3) 4-AP 2.5 mM plus biccuculine (Bic) 50 μM (4-AP/Bic) to activate synaptic NMDARs. […] FIGS. 7G and 7H show the quantification of the active CERB and ERK1/2 in each group under three different treatment conditions (***, p<0.001; ANOVA, Bonferroni's test; mean±SEM, n=3).
Mice pups at P0 were euthanized based on animal protocol. Whole brain was dissected out immediately and immersed in ice-cold Hank's Balanced Salt Solution (HBSS). Meninges were removed thoroughly, and tissue of different brain areas was taken based on purposes. Brain tissue was cut into small pieces and digested with 0.25% trypsin (Thermal Fisher Scientific, 15090-046) in HBSS at 37° C. for 20 min. Digestion solution was quickly removed, and tissue pellets are washed with Neurobasal® Medium (Thermal Fisher Scientific, 21103-049) for 3 times. Cells were resuspended with appropriate amount of Neurobasal® Medium supplemented with 2% B27® supplement (Thermal Fisher Scientific, 17504-044), 3% horse serum (Thermal Fisher Scientific, 16050114), 0.25% L-glutamine (Thermal Fisher Scientific, 25030-081) and 1% penicillin/streptomycin (Thermal Fisher Scientific, 15140-122). Isolated cells were counted and plated on coverslips pre-coated with poly-L-lysine (Sigma-Aldrich, P4707) at a density about 500×10^3 cells/cm2 for OGD and H2O2 treatment, and 100×10^3 cells/cm2 for current recording. Cytosine arabinoside (Sigma-Aldrich, C1768) was added to maintain a concentration at 1 μM to inhibit the proliferation of non-neuronal cells. 24 h after plating, culture medium was changed to Neurobasal® Medium supplemented with 2% B27® supplement, 0.25% L-glutamine and 1% penicillin/streptomycin. The concentration of Cytosine arabinoside (araC) was increased to 2 μM. Medium was changed every 3 days. OGD and H2O2 treatment was conducted at 7th day of culture, and current recording was conducted at 7th, 10th and 14th day of culture.
NP-40/Triton lysis buffer ([…], 1% Triton™ X-100, 150 mM NaCl, 1 mM EDTA, 50 mM Tris, pH=8.0) containing proteinase inhibitors and phosphatase inhibitors was used to lyse both cultured cells and frozen brain tissue. […] Protein concentration was measured using Pierce™ Rapid Gold BCA Protein Assay Kit.
30-50 μg of total protein was loaded and separated proteins were transferred to Nitrocellulose membranes. […] Band intensity was quantified using ImageJ software and normalized with appropriate loading controls.

[1] = 4-AP 2.5 mM plus bicuculline 50 μM 1 h

TAT-EE3: membrane permeable disrupting peptide, sequence YGRKKRRQRRREEDTDSSEEMLALAEE (SEQ ID NO: 4)
increased: pCREB level after 4-AP/Bic treatment [1] | pERK1/2 level after 4-AP/Bic treatment [1] | pCREB level after NMDA treatment (NMDA 10 μM 1 h) | pERK1/2 level after NMDA treatment (NMDA 10 μM 1 h)
